Experimental data as given in PubChem BioAssay AID1259411 (Chemical Carcinogenesis Research Information System (CCRIS), 2018).
Activity calls are given as the source filed them. How the calls were made is not given here.

Test system: rodent carcinogenicity bioassays, tumor incidence
Assay: CCRIS carcinogenicity studies
Conditions: Dose: 0, Dose: 0
Procedure, shortened: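 NCI-built, expert-reviewed records of carcinogenicity and related test outcomes (mutagenicity, tumor promotion/inhibition) compiled from published and report sources, historical span 1985-2011, not updated.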

Row | Structure (SMILES) | carcinogen call (Species: FISH, Strain/Sex: ORYZIAS LATIPES/FEMALE, Route: IMMERSION, 0.018, 0.143, 1.424 MG/L AQUEOUS SOLUTION FOR 6 MO (STUDY DURATION: 6 MO), 0.018, 0.143, 1.424 MG/L AQUEOUS SOLUTION FOR 6 MO (STUDY DURATION: 6 MO)) | carcinogen call (Species: FISH, Strain/Sex: ORYZIAS LATIPES/FEMALE, Route: IMMERSION, 0.018, 0.143, 1.424 MG/L AQUEOUS SOLUTION FOR 9 MO (STUDY DURATION: 9 MO), 0.018, 0.143, 1.424 MG/L AQUEOUS SOLUTION FOR 9 MO (STUDY DURATION: 9 MO)) | carcinogen call (Species: FISH, Strain/Sex: ORYZIAS LATIPES/MALE, Route: IMMERSION, 0.018, 0.143, 1.424 MG/L AQUEOUS SOLUTION FOR 6 MO (STUDY DURATION: 6 MO), 0.018, 0.143, 1.424 MG/L AQUEOUS SOLUTION FOR 6 MO (STUDY DURATION: 6 MO)) | carcinogen call (Species: FISH, Strain/Sex: ORYZIAS LATIPES/MALE, Route: IMMERSION, 0.018, 0.143, 1.424 MG/L AQUEOUS SOLUTION FOR 9 MO (STUDY DURATION: 9 MO), 0.018, 0.143, 1.424 MG/L AQUEOUS SOLUTION FOR 9 MO (STUDY DURATION: 9 MO)) | carcinogen call (Species: MOUSE, Strain/Sex: B6C3F1/FEMALE, Route: GAVAGE, 75, 150 MG/KG IN CORN OIL 5D/WK FOR 102 WK (STUDY DURATION: 105 WK), 75, 150 MG/KG IN CORN OIL 5D/WK FOR 102 WK (STUDY DURATION: 105 WK), Tumor Site: Type of Lesion: LIVER: HEPATOCELLULAR ADENOMA, LIVER: HEPATOCELLULAR CARCINOMA, LIVER: HEPATOCELLULAR ADENOMA OR CARCINOMA, Tumor Site: Type of Lesion: LIVER: HEPATOCELLULAR ADENOMA, LIVER: HEPATOCELLULAR CARCINOMA, LIVER: HEPATOCELLULAR ADENOMA OR CARCINOMA) | carcinogen call (Species: MOUSE, Strain/Sex: B6C3F1/MALE, Route: GAVAGE, 25, 50 MG/KG IN CORN OIL 5D/WK FOR 102 WK (STUDY DURATION: 105 WK), 25, 50 MG/KG IN CORN OIL 5D/WK FOR 102 WK (STUDY DURATION: 105 WK), Tumor Site: Type of Lesion: KIDNEY: TUBULAR CELL ADENOMA OR ADENOCARCINOMA) | carcinogen call (Species: MOUSE, Strain/Sex: B6C3F1/MALE, Route: ORAL, 8.1, 27.2, 43.4 MG/KG/D IN 0.25% EMULPHOR IN DRINKING WATER FOR 100 WK (STUDY DURATION: 100 WK), 8.1, 27.2, 43.4 MG/KG/D IN 0.25% EMULPHOR IN DRINKING WATER FOR 100 WK (STUDY DURATION: 100 WK)) | carcinogen call (Species: Mouse, Strain/Sex: B6C3F1/female, Route: Oral, 175, 350, 700 mg/L (about 0, 9, 18, and 36 mg/kg, respectively) in drinking water for 104 wk, 175, 350, 700 mg/L (about 0, 9, 18, and 36 mg/kg, respectively) in drinking water for 104 wk) | carcinogen call (Species: RAT, Strain/Sex: F344/FEMALE, Route: GAVAGE, 50, 100 MG/KG IN CORN OIL 5D/WK FOR 102 WK (STUDY DURATION: 104 WK), 50, 100 MG/KG IN CORN OIL 5D/WK FOR 102 WK (STUDY DURATION: 104 WK), Tumor Site: Type of Lesion: LARGE INTESTINE: ADENOMATOUS POLYP, LARGE INTESTINE: ADENOCARCINOMA, LARGE INTESTINE: ADENOMATOUS POLYP OR ADENOCARCINOM, Tumor Site: Type of Lesion: LARGE INTESTINE: ADENOMATOUS POLYP, LARGE INTESTINE: ADENOCARCINOMA, LARGE INTESTINE: ADENOMATOUS POLYP OR ADENOCARCINOM) | carcinogen call (Species: RAT, Strain/Sex: F344/MALE, Route: GAVAGE, 50, 100 MG/KG IN CORN OIL 5D/WK FOR 102 WK (STUDY DURATION: 104 WK), 50, 100 MG/KG IN CORN OIL 5D/WK FOR 102 WK (STUDY DURATION: 104 WK), Tumor Site: Type of Lesion: LARGE INTESTINE: ADENOCARCINOMA, LARGE INTESTINE: ADENOMATOUS POLYP, LARGE INTESTINE: ADENOMATOUS POLYP OR ADENOCARCINOM, Tumor Site: Type of Lesion: LARGE INTESTINE: ADENOCARCINOMA, LARGE INTESTINE: ADENOMATOUS POLYP, LARGE INTESTINE: ADENOMATOUS POLYP OR ADENOCARCINOM) | carcinogen call (Species: RAT, Strain/Sex: F344/MALE, Route: ORAL, 3.9, 20.6, 36.3 MG/KG/D IN 0.25% EMULPHOR IN DRINKING WATER FOR 100 WK (STUDY DURATION: 100 WK), 3.9, 20.6, 36.3 MG/KG/D IN 0.25% EMULPHOR IN DRINKING WATER FOR 100 WK (STUDY DURATION: 100 WK), Tumor Site: Type of Lesion: LIVER: HEPATOCELLULAR ADENOMA, HEPATOCELLULAR ADENOMA OR HEPATOCELLULAR CARCINOMA) | carcinogen call (Species: RAT, Strain/Sex: WISTAR/FEMALE, Route: ORAL, 1.2 ML/L (15 MILLIMOLAR) IN DRINKING WATER FOR 72 WK THEN DOSE HALVED FOR DURATION OF STUDY (STUDY DURATION: LIFETIME, Tumor Site: Type of Lesion: LIVER: NEOPLASTIC NODULES, LYMPHOID TISSUE: LYMPHOSARCOMA) | carcinogen call (Species: RAT, Strain/Sex: WISTAR/MALE, Route: ORAL, 1.2 ML/L (15 MILLIMOLAR) IN DRINKING WATER FOR 72 WK THEN DOSE HALVED FOR DURATION OF STUDY (STUDY DURATION: LIFETIME) | carcinogen call (Species: Rat, Strain/Sex: F344/N/male, Route: Oral, 175, 350, 700 mg/L (about 0, 6, 12, and 25 mg/kg, respectively) in drinking water for 104 wk, 175, 350, 700 mg/L (about 0, 6, 12, and 25 mg/kg, respectively) in drinking water for 104 wk) | carcinogen call (Species: RAT, Strain/Sex: SPRAGUE-DAWLEY/FEMALE, Route: GAVAGE, 10, 27, 71, 188, 500 MG/KG 3/WK FOR 2 YR (STUDY DURATION: 2 YR), 10, 27, 71, 188, 500 MG/KG 3/WK FOR 2 YR (STUDY DURATION: 2 YR)) | carcinogen call (Species: RAT, Strain/Sex: SPRAGUE-DAWLEY/MALE, Route: GAVAGE, 10, 27, 71, 188, 500 MG/KG 3/WK FOR 2 YR (STUDY DURATION: 2 YR), 10, 27, 71, 188, 500 MG/KG 3/WK FOR 2 YR (STUDY DURATION: 2 YR))
1 | ClC(Cl)Br | inactive; negative | inactive; negative | inactive; negative | inactive; negative | active; positive | active; positive | inactive; negative | inactive; negative | active; positive | active; positive | active; positive | active; positive | inactive; negative | inactive; negative | – | –
2 | C[C@@H]1O[C@@H](OC[C@H]2O[C@@H](Oc3c(-c4ccc(O)c(O)c4)oc4cc(OS(=O)(=O)O)cc(OS(=O)(=O)O)c4c3=O)[C@H](O)[C@@H](O)[C@@H]2O)[C@H](O)[C@H](O)[C@H]1O | – | – | – | – | – | – | – | – | – | – | – | – | – | – | inactive; negative | inactive; negative
